pEC50: −log10 of the molar value.

This experiment has as its target T1, hQ23 (HEK-293 cell line stably transfected with one of the members of the KCNQ family) (Homo sapiens, UniProt O43525+O43526).
T1 construct: expressed in transfected cells; host or cells: HEK-293, stably transfected
The experiment can be described thus: Thallium flux assay for KCNQ channel blockers (FLIPR, BTC dye). The class given is cell-based. Put shortly:
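FLIPR thallium flux readout (BTC dye, 2 μM AM ester) in stably transfected KCNQ HEK-293 cells, chloride-free HEPES buffer pH 7.3, Tl2SO4 stimulus. IC50s were fitted with a single-site logistic equation across 10 points at 1:3 dilutions, defined as 50% of positive-control block; minimal active concentration meant signal ≥4 SD over DMSO controls.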

The mark [1] stands for this setting: hQ23 cells, thallium flux assay.
The mark [2] stands for this setting: Table 2, thallium flux, HEK-293.

T1 sequence (O43526 whole entry): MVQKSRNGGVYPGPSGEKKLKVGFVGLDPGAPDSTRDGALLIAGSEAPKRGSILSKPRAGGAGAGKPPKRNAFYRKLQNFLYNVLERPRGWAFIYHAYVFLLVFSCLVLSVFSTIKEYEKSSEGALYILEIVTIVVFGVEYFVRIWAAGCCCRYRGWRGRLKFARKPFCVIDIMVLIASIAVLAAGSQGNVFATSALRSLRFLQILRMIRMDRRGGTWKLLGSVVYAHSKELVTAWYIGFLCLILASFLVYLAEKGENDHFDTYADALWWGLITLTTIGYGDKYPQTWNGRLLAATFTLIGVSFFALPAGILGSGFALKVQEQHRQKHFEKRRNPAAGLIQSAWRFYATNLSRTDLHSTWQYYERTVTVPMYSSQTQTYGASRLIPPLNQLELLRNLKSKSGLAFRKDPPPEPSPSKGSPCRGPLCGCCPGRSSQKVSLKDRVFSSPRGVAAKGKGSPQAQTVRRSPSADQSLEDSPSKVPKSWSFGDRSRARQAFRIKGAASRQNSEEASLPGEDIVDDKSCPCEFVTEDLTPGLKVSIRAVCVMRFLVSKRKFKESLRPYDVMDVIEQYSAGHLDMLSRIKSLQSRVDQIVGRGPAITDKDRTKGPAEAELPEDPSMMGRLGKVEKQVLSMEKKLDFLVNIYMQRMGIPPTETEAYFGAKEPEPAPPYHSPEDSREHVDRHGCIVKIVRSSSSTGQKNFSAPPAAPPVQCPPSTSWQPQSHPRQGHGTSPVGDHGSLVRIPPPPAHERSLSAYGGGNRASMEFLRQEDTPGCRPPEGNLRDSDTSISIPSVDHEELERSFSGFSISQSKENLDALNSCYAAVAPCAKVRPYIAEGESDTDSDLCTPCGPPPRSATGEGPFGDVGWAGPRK
T1 sequence (O43525 whole entry): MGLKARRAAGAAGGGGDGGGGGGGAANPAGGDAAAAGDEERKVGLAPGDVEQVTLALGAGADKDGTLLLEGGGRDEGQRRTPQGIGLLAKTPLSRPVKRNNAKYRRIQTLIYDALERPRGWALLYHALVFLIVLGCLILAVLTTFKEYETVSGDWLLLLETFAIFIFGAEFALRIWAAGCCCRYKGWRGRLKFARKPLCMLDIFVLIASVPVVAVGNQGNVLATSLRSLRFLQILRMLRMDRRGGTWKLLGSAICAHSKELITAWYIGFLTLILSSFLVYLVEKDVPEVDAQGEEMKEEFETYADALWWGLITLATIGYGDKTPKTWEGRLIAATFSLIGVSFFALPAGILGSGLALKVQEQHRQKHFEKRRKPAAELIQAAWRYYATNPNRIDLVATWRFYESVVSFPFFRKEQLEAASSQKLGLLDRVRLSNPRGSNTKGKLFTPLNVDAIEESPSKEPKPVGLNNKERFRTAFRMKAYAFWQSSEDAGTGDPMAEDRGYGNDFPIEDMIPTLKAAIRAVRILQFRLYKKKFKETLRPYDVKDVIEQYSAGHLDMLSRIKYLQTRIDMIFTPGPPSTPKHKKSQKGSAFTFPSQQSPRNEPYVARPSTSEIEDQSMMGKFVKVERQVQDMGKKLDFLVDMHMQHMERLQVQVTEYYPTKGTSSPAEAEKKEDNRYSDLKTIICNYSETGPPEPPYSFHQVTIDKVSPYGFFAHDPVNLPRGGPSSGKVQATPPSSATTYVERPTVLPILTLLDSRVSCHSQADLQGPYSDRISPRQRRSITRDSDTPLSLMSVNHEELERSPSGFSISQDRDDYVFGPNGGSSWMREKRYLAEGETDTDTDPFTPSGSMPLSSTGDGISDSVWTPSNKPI

`CC1CCN(c2ncc(C(=O)NCc3cc(F)cc(C(F)(F)F)c3)c(C3(c4ccc(F)cc4)CCCC3)n2)CC1` [Example 278, 5-pyrimidinecarboxamide, 4-[1-(4-fluorophenyl)cyclopentyl]-N-[[3-fluoro-5-(trifluoromethyl)phenyl]methyl]-2-(4-methyl-1-piperidinyl)-] gave a pEC50 under setting [1] of 8.00.

In the case of `CC1CCC(Nc2ncc(C(=O)NC(C)c3ccc(F)cc3)c(C3(c4ccc(F)cc4)CCCC3)n2)CC1` (stereo not drawn) [Example 281, 5-pyrimidinecarboxamide, 4-[1-(4-fluorophenyl)cyclopentyl]-N-[1-(4-fluorophenyl)ethyl]-2-[(4-methylcyclohexyl)amino]-], under setting [1], the pEC50 was 6.93.

Regarding `CC1CCN(c2ncc(C(=O)NC(C)c3ccc(F)cc3)c(C3(c4ccc(F)cc4)CCCC3)n2)CC1` (stereo not drawn) [Example 285, 5-pyrimidinecarboxamide, 4-[1-(4-fluorophenyl)cyclopentyl]-N-[1-(4-fluorophenyl)ethyl]-2-(4-methyl-1-piperidinyl)-], the pEC50 under setting [1] is 7.02.

For the setting “hQ23 cells, thallium flux”, `CC1CCN(c2ncc(C(=O)NCc3ccc(Cl)cc3Cl)c(C3(c4ccccc4)CCCC3)n2)CC1` [Example 113, 5-pyrimidinecarboxamide, N-[(2,4-dichlorophenyl)methyl]-2-(4-methyl-1-piperidinyl)-4-(1-phenylcyclopentyl)-] gave a pEC50 of 8.00.

As for `CC1CCCN(c2ncc(C(=O)NCc3cccc4ccccc34)c(C3(c4ccccc4)CCCC3)n2)C1` (stereo not drawn) [Example 103, 5-pyrimidinecarboxamide, 2-(3-methyl-1-piperidinyl)-N-(1-naphthalenylmethyl)-4-(1-phenylcyclopentyl)-], the pEC50 (hQ23 cells, thallium flux) is 7.18.

Turning to `O=C(NCc1ccc(Cl)cc1Cl)c1cnc(NC2CCCC2)nc1C1(c2ccc(F)cc2)CCCC1` [Example 266, 5-pyrimidinecarboxamide, 2-(cyclopentylamino)-N-[(2,4-dichlorophenyl)methyl]-4-[1-(4-fluorophenyl)cyclopentyl]-], under setting [1], the pEC50 was 7.57.

Regarding `O=C(NCc1cc(F)cc(C(F)(F)F)c1)c1cnc(N2CCCC2)nc1C1(c2ccccc2)CC1` [Example 45, 5-pyrimidinecarboxamide, N-[[3-fluoro-5-(trifluoromethyl)phenyl]methyl]-4-(1-phenylcyclopropyl)-2-(1-pyrrolidinyl)-], the pEC50 under setting [2] was 6.68.

Take `CC1CCC(Nc2ncc(C(=O)N3CCc4ccccc4C3)c(C3(c4ccc(F)cc4)CCCC3)n2)CC1` (stereo not drawn) [Example 210, isoquinoline, 2-[[4-[1-(4-fluorophenyl)cyclopentyl]-2-[(4-methylcyclohexyl)amino]-5-pyrimidinyl]carbonyl]-1,2,3,4-tetrahydro-]: the pEC50 (hQ23 cells, thallium flux) is 6.43.

For `CN1CCN(c2ncc(C(=O)NCc3ccc4c(c3)OCO4)c(C3(c4ccccc4)CCCC3)n2)CC1` [Example 91, 5-pyrimidinecarboxamide, N-(1,3-benzodioxol-5-ylmethyl)-2-(4-methyl-1-piperazinyl)-4-(1-phenylcyclopentyl)-], the pEC50 (hQ23 cells, thallium flux) is 6.59.

For the setting “hQ23 cells, thallium flux”, `CC1CCN(c2ncc(C(=O)N(C)CCc3ccccc3)c(C3(c4ccccc4)CCCC3)n2)CC1` [Example 81, 5-pyrimidinecarboxamide, N-methyl-2-(4-methyl-1-piperidinyl)-4-(1-phenylcyclopentyl)-N-(2-phenylethyl)-] showed a pEC50 of 6.36.

Under “hQ23 cells, thallium flux”, `O=C(NCc1cccc2ccccc12)c1cnc(NC2CCCC2)nc1C1(c2ccc(Cl)cc2)CCCC1` [Example 172, 5-pyrimidinecarboxamide, 4-[1-(4-chlorophenyl)cyclopentyl]-2-(cyclopentylamino)-N-(1-naphthalenylmethyl)-] showed a pEC50 of 6.43.

The compound `CCC(C)Nc1ncc(C(=O)NCc2ccc3c(c2)OCO3)c(C2(c3ccccc3)CCCC2)n1` (stereo not drawn) [Example 94, 5-pyrimidinecarboxamide, N-(1,3-benzodioxol-5-ylmethyl)-2-[(1-methylpropyl)amino]-4-(1-phenylcyclopentyl)-] gave a pEC50 (hQ23 cells, thallium flux) of 6.52.

Regarding `CC1CCN(c2ncc(C(=O)NC(C)c3ccc(F)cc3)c(C3(c4ccc(Cl)cc4)CCCC3)n2)CC1` (stereo not drawn) [Example 199, 5-pyrimidinecarboxamide, 4-[1-(4-chlorophenyl)cyclopentyl]-N-[1-(4-fluorophenyl)ethyl]-2-(4-methyl-1-piperidinyl)-], the pEC50 (hQ23 cells, thallium flux) was 7.21.

For the setting “hQ23 cells, thallium flux”, `CCN(Cc1ccccc1)C(=O)c1cnc(N2CCCC(C)C2)nc1C1(c2ccc(F)cc2)CCCC1` (stereo not drawn) [Example 229, 5-pyrimidinecarboxamide, N-ethyl-4-[1-(4-fluorophenyl)cyclopentyl]-2-(3-methyl-1-piperidinyl)-N-(phenylmethyl)-] had a pEC50 of 6.43.

With `CC(NC(=O)c1cnc(NCCN(C)C)nc1C1(c2ccc(Cl)cc2)CCCC1)c1cccc2ccccc12` (stereo not drawn) [Example 163, 5-pyrimidinecarboxamide, 4-[1-(4-chlorophenyl)cyclopentyl]-2-[[2-(dimethylamino)ethyl]amino]-N-[1-(1-naphthalenyl)ethyl]-], the pEC50 (hQ23 cells, thallium flux) was 6.15.

`CC1CCC(Nc2ncc(C(=O)N(C)CCc3ccccc3)c(C3(c4ccc(Cl)cc4)CCCC3)n2)CC1` (stereo not drawn) [Example 146, 5-pyrimidinecarboxamide, 4-[1-(4-chlorophenyl)cyclopentyl]-N-methyl-2-[(4-methylcyclohexyl)amino]-N-(2-phenylethyl)-] had a pEC50 (hQ23 cells, thallium flux) of 6.18.

`O=C(NCc1cc(F)cc(C(F)(F)F)c1)c1cnc(N2CCCC2)nc1C1(c2ccc(F)cc2)CCCC1` [Example 275, 5-pyrimidinecarboxamide, 4-[1-(4-fluorophenyl)cyclopentyl]-N-[[3-fluoro-5-(trifluoromethyl)phenyl]methyl]-2-(1-pyrrolidinyl)-] showed a pEC50 under setting [1] of 7.62.

Under “hQ23 cells, thallium flux”, `CN(CCc1ccccc1)C(=O)c1cnc(N2CCCC2)nc1C1(c2ccccc2)CCCC1` [Example 79, 5-pyrimidinecarboxamide, N-methyl-4-(1-phenylcyclopentyl)-N-(2-phenylethyl)-2-(1-pyrrolidinyl)-] showed a pEC50 of 6.35.

Compound `CC(NC(=O)c1cnc(N2CCCC2)nc1C1(c2ccc(F)cc2)CCCC1)c1ccc(F)cc1` (stereo not drawn) [Example 282, 5-pyrimidinecarboxamide, 4-[1-(4-fluorophenyl)cyclopentyl]-N-[1-(4-fluorophenyl)ethyl]-2-(1-pyrrolidinyl)-] had a pEC50 under setting [1] of 6.23.

`CN1CCN(c2ncc(C(=O)NCc3ccc(Cl)c(Cl)c3)c(C3(c4ccc(F)cc4)CCCC3)n2)CC1` [Example 254, 5-pyrimidinecarboxamide, N-[(3,4-dichlorophenyl)methyl]-4-[1-(4-fluorophenyl)cyclopentyl]-2-(4-methyl-1-piperazinyl)-]: the pEC50 under setting [1] is 6.28.

Take `CC1CCN(c2ncc(C(=O)N[C@H](C)c3cccc4ccccc34)c(C3(c4ccccc4)CC3)n2)CC1` [Example 35, 5-pyrimidinecarboxamide, 2-(4-methyl-1-piperidinyl)-N-[(1R)-1-(1-naphthalenyl)ethyl]-4-(1-phenylcyclopropyl)-]: the pEC50 under setting [2] is 6.67.

In the case of `CC(NC(=O)c1cnc(NC2CCCC2)nc1C1(c2ccc(F)cc2)CCCC1)c1ccc(F)cc1` (stereo not drawn) [Example 287, 5-pyrimidinecarboxamide, 2-(cyclopentylamino)-4-[1-(4-fluorophenyl)cyclopentyl]-N-[1-(4-fluorophenyl)ethyl]-], the pEC50 under setting [1] was 6.24.

On to `CC1CCC(Nc2ncc(C(=O)NCc3cc(F)cc(C(F)(F)F)c3)c(C3(c4ccccc4)CC3)n2)CC1` (stereo not drawn) [Example 44, 5-pyrimidinecarboxamide, N-[[3-fluoro-5-(trifluoromethyl)phenyl]methyl]-2-[(4-methylcyclohexyl)amino]-4-(1-phenylcyclopropyl)-], for which, under setting [2], the pEC50 was 7.36.

As for `CCC(C)Nc1ncc(C(=O)NCc2cc(F)cc(C(F)(F)F)c2)c(C2(c3ccc(F)cc3)CCCC2)n1` (stereo not drawn) [Example 279, 5-pyrimidinecarboxamide, 4-[1-(4-fluorophenyl)cyclopentyl]-N-[[3-fluoro-5-(trifluoromethyl)phenyl]methyl]-2-[(1-methylpropyl)amino]-], the pEC50 under setting [1] is 7.26.

As for `CCN(C(=O)c1cnc(N2CCC(C)CC2)nc1C1(c2ccccc2)CCCC1)C1CCCCC1` [Example 76, 5-pyrimidinecarboxamide, N-cyclohexyl-N-ethyl-2-(4-methyl-1-piperidinyl)-4-(1-phenylcyclopentyl)-], the pEC50 (hQ23 cells, thallium flux) is 6.05.

`CC1CCN(c2ncc(C(=O)N(C)Cc3ccccc3)c(C3(c4ccc(F)cc4)CCCC3)n2)CC1` [Example 206, 5-pyrimidinecarboxamide, 4-[1-(4-fluorophenyl)cyclopentyl]-N-methyl-2-(4-methyl-1-piperidinyl)-N-(phenylmethyl)-]: under “hQ23 cells, thallium flux”, the pEC50 is 6.58.

On to `CC1CCC(Nc2ncc(C(=O)N(C)C3CCCCC3)c(C3(c4ccc(F)cc4)CCCC3)n2)CC1` (stereo not drawn) [Example 207, 5-pyrimidinecarboxamide, N-cyclohexyl-4-[1-(4-fluorophenyl)cyclopentyl]-N-methyl-2-[(4-methylcyclohexyl)amino]-], for which the pEC50 (hQ23 cells, thallium flux) is 6.06.

Where the note is “hQ23 cells, thallium flux”, `CN(CCc1ccccc1)C(=O)c1cnc(N2CCCC2)nc1C1(c2ccc(Cl)cc2)CCCC1` [Example 147, 5-pyrimidinecarboxamide, 4-[1-(4-chlorophenyl)cyclopentyl]-N-methyl-N-(2-phenylethyl)-2-(1-pyrrolidinyl)-] had a pEC50 of 6.77.

As to `CN(Cc1ccccc1)C(=O)c1cnc(N2CCCC2)nc1C1(c2ccccc2)CCCC1` [Example 69, 5-pyrimidinecarboxamide, N-methyl-4-(1-phenylcyclopentyl)-N-(phenylmethyl)-2-(1-pyrrolidinyl)-], the pEC50 (hQ23 cells, thallium flux) is 6.11.

In the case of `CN1CCN(c2ncc(C(=O)NCc3ccc(Cl)cc3Cl)c(C3(c4ccc(Cl)cc4)CCCC3)n2)CC1` [Example 179, 5-pyrimidinecarboxamide, 4-[1-(4-chlorophenyl)cyclopentyl]-N-[(2,4-dichlorophenyl)methyl]-2-(4-methyl-1-piperazinyl)-], the pEC50 (hQ23 cells, thallium flux) was 6.27.

Source of the values: patent publication US7091202B2, “4-arylspirocycloalkyl-2-aminopyrimidine carboxamide KCNQ potassium channel modulators” (Bristol-Myers Squibb Company, priority 2004, dated 2006).
